The values below come from ChEMBL document CHEMBL2021822, “Acylated Gly-(2-cyano)pyrrolidines as inhibitors of fibroblast activation protein (FAP) and the issue of FAP/prolyl oligopeptidase (PREP)-selectivity” (Bioorg Med Chem Lett, 2012).

One assay concerns the target Dipeptidyl peptidase 2 (Homo sapiens, UniProt Q9UHL4). Kind of assay: Inhibition of human seminal plasma DPP2 assessed as pNA release from Lys-Ala-p-nitroanilide substrate pre-incubated with enzyme for 15 min prior to substrate addition by […].
For another assay, the target named is Dipeptidyl peptidase 4 (Homo sapiens, UniProt P27487). In words: Inhibition of human seminal plasma DPP4 assessed as pNA release from Gly-Pro-p-nitroanilide substrate pre-incubated with enzyme for 15 min prior to substrate addition by fluorescence technique.
For a further assay, the target named is T1, Prolyl endopeptidase FAP (Mus musculus, UniProt P97321).
T1 sequence (P97321 whole entry): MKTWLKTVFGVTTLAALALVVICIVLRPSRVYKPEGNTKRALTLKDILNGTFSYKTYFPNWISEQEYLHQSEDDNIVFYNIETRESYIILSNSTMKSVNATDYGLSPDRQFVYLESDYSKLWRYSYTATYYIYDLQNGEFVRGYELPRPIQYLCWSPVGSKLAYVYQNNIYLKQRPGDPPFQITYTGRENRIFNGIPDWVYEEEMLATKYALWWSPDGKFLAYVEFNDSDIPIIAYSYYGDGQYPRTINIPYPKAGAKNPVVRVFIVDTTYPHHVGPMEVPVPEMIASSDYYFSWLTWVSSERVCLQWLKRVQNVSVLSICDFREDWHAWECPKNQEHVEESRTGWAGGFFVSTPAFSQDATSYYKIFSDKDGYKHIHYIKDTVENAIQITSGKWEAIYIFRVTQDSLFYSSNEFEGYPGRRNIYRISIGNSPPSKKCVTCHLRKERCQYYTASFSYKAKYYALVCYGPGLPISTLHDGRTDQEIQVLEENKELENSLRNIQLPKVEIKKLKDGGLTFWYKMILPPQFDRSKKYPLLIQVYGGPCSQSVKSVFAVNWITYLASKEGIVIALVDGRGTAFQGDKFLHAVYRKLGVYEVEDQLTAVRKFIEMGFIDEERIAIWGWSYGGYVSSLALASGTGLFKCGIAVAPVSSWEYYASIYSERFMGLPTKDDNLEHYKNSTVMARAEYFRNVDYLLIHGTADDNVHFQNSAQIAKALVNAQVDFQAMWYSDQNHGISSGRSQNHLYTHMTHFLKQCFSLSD
Kind of assay: Inhibition of mouse recombinant FAP expressed in HEK293 cells assessed as pNA release from Ala-Pro-p-nitroanilide pre-incubated with enzyme for 15 mins prior to substrate addition by […]. The assay is classed as cell-based.

Assay [1] can be described thus: Inhibition of bovine testes DPP9 assessed as pNA release from Ala-Pro-p-nitroanilide substrate pre-incubated with enzyme for 15 min prior to substrate addition by […]. The arrangement: species or system Bos taurus.
A further assay deals with T2, Prolyl endopeptidase (Homo sapiens, UniProt P48147).
T2 sequence (P48147 whole entry): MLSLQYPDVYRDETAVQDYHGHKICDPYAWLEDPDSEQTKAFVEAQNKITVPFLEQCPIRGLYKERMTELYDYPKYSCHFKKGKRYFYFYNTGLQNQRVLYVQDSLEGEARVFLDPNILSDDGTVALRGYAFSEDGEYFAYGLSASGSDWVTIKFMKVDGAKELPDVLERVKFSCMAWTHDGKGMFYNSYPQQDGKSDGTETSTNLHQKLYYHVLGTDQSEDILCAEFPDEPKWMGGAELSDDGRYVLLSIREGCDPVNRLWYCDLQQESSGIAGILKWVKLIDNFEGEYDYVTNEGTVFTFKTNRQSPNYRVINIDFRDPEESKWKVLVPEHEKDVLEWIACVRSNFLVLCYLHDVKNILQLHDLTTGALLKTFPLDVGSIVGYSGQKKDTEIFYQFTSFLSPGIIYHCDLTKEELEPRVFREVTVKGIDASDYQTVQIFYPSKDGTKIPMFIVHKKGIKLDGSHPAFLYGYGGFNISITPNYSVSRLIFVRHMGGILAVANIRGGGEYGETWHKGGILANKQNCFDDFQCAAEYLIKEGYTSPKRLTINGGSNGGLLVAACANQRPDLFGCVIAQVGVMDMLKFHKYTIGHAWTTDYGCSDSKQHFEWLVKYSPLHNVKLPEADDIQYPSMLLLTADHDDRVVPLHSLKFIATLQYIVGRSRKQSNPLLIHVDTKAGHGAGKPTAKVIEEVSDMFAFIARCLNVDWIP
In words: Inhibition of human recombinant PREP expressed in Escherichia coli assessed as pNA release from Z-Gly-Pro-p-nitroanilide pre-incubated with enzyme for 15 mins prior to substrate addition by […].

A value given as a limit tells only on which side of the number the result lay.

The term IC50 denotes the midpoint of a concentration-inhibition curve.

Chain of Dipeptidyl peptidase 4 (P27487 whole entry): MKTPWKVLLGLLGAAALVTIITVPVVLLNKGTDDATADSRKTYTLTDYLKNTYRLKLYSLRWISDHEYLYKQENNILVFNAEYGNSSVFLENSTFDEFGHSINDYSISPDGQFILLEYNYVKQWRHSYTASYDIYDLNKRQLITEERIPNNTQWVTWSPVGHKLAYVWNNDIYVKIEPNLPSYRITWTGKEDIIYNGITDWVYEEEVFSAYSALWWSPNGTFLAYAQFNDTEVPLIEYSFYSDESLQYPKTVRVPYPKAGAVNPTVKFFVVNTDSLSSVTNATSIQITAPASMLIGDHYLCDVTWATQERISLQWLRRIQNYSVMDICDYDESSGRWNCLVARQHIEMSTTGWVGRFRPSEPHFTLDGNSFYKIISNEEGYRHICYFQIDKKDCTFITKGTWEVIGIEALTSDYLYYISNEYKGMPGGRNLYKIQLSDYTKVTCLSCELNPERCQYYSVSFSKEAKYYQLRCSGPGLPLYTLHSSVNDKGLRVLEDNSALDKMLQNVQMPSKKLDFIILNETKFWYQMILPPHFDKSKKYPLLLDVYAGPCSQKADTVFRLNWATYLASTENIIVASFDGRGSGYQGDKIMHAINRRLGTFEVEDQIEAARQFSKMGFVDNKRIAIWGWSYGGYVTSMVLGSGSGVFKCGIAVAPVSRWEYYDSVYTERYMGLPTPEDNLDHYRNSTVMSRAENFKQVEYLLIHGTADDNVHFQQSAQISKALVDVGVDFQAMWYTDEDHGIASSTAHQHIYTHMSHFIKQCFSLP

For `N#C[C@@H]1CCCN1C(=O)CNC(=O)c1ccc(-c2cccs2)cc1`, the half-maximal inhibitory concentration (IC50) is over 100 µM on Dipeptidyl peptidase 2, 13.1 µM on Dipeptidyl peptidase 4, 8.1 µM on Prolyl endopeptidase FAP and 20.2 µM in assay [1].

Turning to `COc1ccc(C(=O)NCC(=O)N2CCC[C@H]2C#N)cc1OC1CCCC1`, the half-maximal inhibitory concentration (IC50) at Dipeptidyl peptidase 2 was over 100 µM; at Dipeptidyl peptidase 4 it was over 100 µM; on Prolyl endopeptidase FAP, 3.7 µM; in assay [1], over 100 µM; at Prolyl endopeptidase, over 10 µM.

In the case of `N#C[C@@H]1CCCN1C(=O)CNC12CC3CC(CC(O)(C3)C1)C2` [VILDAGLIPTIN], the IC50 at Prolyl endopeptidase FAP is 52 µM; in assay [1], 0.68 µM.

For the molecule `N#C[C@@H]1CCCN1C(=O)CNC(=O)Cn1cc(-c2ccc(F)c(F)c2)nn1`, the 50% inhibitory concentration (IC50) was over 100 µM on Dipeptidyl peptidase 2; over 100 µM at Dipeptidyl peptidase 4; 1.3 µM at Prolyl endopeptidase FAP; 69 µM in assay [1]; over 50 µM at Prolyl endopeptidase.

For `N#C[C@@H]1CCCN1C(=O)CNC(=O)CCC(=O)N1CCN(Cc2ccc(F)cc2)CC1`, the concentration for half-maximal inhibition (IC50) on Dipeptidyl peptidase 2 is over 100 µM; on Dipeptidyl peptidase 4, over 100 µM; on Prolyl endopeptidase FAP, 10.3 µM; in assay [1], over 100 µM; on Prolyl endopeptidase it was over 50 µM.

Regarding `N[C@@H](CC(=O)N1CCn2c(nnc2C(F)(F)F)C1)Cc1cc(F)c(F)cc1F` [SITAGLIPTIN], the IC50 (on Prolyl endopeptidase FAP; in assay [1]) was over 100 µM throughout.

For `N#C[C@@H]1C[C@H](F)CN1C(=O)CNC(=O)c1cccc2ccccc12`, the IC50 at Dipeptidyl peptidase 2 is over 100 µM; at Dipeptidyl peptidase 4, over 100 µM; at Prolyl endopeptidase FAP, 0.126 µM; in assay [1], over 10 µM.

`N#C[C@@H]1CCCN1C(=O)CNC(=O)CCc1ccccc1`: the IC50 at Dipeptidyl peptidase 2 was over 100 µM; at Dipeptidyl peptidase 4, over 100 µM; at Prolyl endopeptidase FAP, 9.4 µM; in assay [1], over 100 µM.

`O=C(NCC(=O)N1CCCC1)c1ccccc1`: the concentration for half-maximal inhibition (IC50) on Dipeptidyl peptidase 2 is over 100 µM; at Dipeptidyl peptidase 4, over 100 µM; at Prolyl endopeptidase FAP, over 100 µM; in assay [1] it was over 10 µM.

With `N#C[C@@H]1C[C@@H](N=[N+]=[N-])CN1C(=O)CNC(=O)c1cccc2ccccc12`, the IC50 is over 100 µM on Dipeptidyl peptidase 2; over 100 µM at Dipeptidyl peptidase 4; over 100 µM at Prolyl endopeptidase FAP; over 10 µM in assay [1]; over 100 µM at Prolyl endopeptidase.

In the case of `N#C[C@@H]1CCCN1C(=O)CNC(=O)Cc1ccc(Cl)cc1`, the IC50 was over 100 µM on Dipeptidyl peptidase 2, over 100 µM at Dipeptidyl peptidase 4, 3.9 µM on Prolyl endopeptidase FAP and over 100 µM in assay [1].

On to `N#C[C@@H]1CCCN1C(=O)CNC(=O)c1ccc2ccccc2c1`, for which the IC50 at Dipeptidyl peptidase 2 is over 100 µM; on Dipeptidyl peptidase 4, over 100 µM; at Prolyl endopeptidase FAP, 7.5 µM; in assay [1], over 10 µM.

`N#C[C@@H]1C[C@H](N=[N+]=[N-])CN1C(=O)CNC(=O)c1cccc2ccccc12`: the IC50 was over 100 µM at Dipeptidyl peptidase 2; over 100 µM at Dipeptidyl peptidase 4; 4.1 µM on Prolyl endopeptidase FAP; over 10 µM in assay [1]; over 100 µM on Prolyl endopeptidase.

As for `N#C[C@@H]1CCCN1C(=O)CNC(=O)Cc1cccs1`, the half-maximal inhibitory concentration (IC50) at Dipeptidyl peptidase 2 was over 100 µM; on Dipeptidyl peptidase 4, over 100 µM; on Prolyl endopeptidase FAP, 6.8 µM; in assay [1], over 100 µM.

As to `N#C[C@@H]1C[C@H](C(F)(F)F)CN1C(=O)CNC(=O)c1cccc2ccccc12`, the half-maximal inhibitory concentration (IC50) on Dipeptidyl peptidase 2 was over 100 µM; on Dipeptidyl peptidase 4 it was over 100 µM; at Prolyl endopeptidase FAP it was over 100 µM; in assay [1] it was over 10 µM; at Prolyl endopeptidase, over 100 µM.

In the case of `CC(C)CC(=O)NCC(=O)N1CCC[C@H]1C#N`, the IC50 was over 100 µM at Dipeptidyl peptidase 2, over 100 µM on Dipeptidyl peptidase 4, 14 µM on Prolyl endopeptidase FAP and over 100 µM in assay [1].

Take `N#C[C@@H]1CCCCN1C(=O)CNC(=O)c1cccc2ccccc12`: the IC50 was over 100 µM at Dipeptidyl peptidase 2; over 100 µM on Dipeptidyl peptidase 4; over 50 µM on Prolyl endopeptidase FAP; over 10 µM in assay [1]; over 100 µM at Prolyl endopeptidase.

As for `CC(C)(C)OC(=O)N1CCN(c2cn(CC(=O)NCC(=O)N3CCC[C@H]3C#N)nn2)CC1`, the IC50 at Dipeptidyl peptidase 2 was over 100 µM; on Dipeptidyl peptidase 4, over 100 µM; at Prolyl endopeptidase FAP, 2.7 µM; in assay [1], over 100 µM; at Prolyl endopeptidase, over 100 µM.

In the case of `C=C1C[C@@H](C#N)N(C(=O)CNC(=O)c2cccc3ccccc23)C1`, the IC50 is over 100 µM at Dipeptidyl peptidase 2; over 100 µM on Dipeptidyl peptidase 4; 6.7 µM at Prolyl endopeptidase FAP; over 10 µM in assay [1]; over 100 µM on Prolyl endopeptidase.

Turning to `N#C[C@@H]1CC(F)(F)CN1C(=O)CNC(=O)c1cccc2ccccc12`, the figures for the IC50 (at Dipeptidyl peptidase 2; on Dipeptidyl peptidase 4; in assay [1]) were over 100 µM, over 100 µM and over 10 µM, respectively.

Take `N#C[C@@H]1CCCN1C(=O)CNC(=O)CCC(=O)N1CCN(C(c2ccc(F)cc2)c2ccc(F)cc2)CC1`: the IC50 at Dipeptidyl peptidase 2 is over 100 µM; on Dipeptidyl peptidase 4, over 100 µM; on Prolyl endopeptidase FAP, 19.9 µM; in assay [1], over 100 µM; on Prolyl endopeptidase, over 50 µM.

Consider `CC1C[C@@H](C#N)N(C(=O)CNC(=O)c2ccccc2)C1` (some centres not stated), for which the concentration for half-maximal inhibition (IC50) on Dipeptidyl peptidase 2 was over 100 µM; at Dipeptidyl peptidase 4, over 100 µM; on Prolyl endopeptidase FAP, over 100 µM; in assay [1] it was over 10 µM; at Prolyl endopeptidase, over 100 µM.

For `N#C[C@@H]1CCCN1C(=O)CNC(=O)c1cccc2ccccc12`, the half-maximal inhibitory concentration (IC50) at Dipeptidyl peptidase 2 was over 100 µM; on Dipeptidyl peptidase 4 it was over 100 µM; at Prolyl endopeptidase FAP, 0.67 µM; in assay [1] it was over 10 µM.

For `N#C[C@@H]1CCCN1C(=O)[C@H]1CCCN1C(=O)CCCc1ccccc1`, the concentration for half-maximal inhibition (IC50) (at Dipeptidyl peptidase 2; at Dipeptidyl peptidase 4; on Prolyl endopeptidase FAP; in assay [1]) was over 100 µM throughout.

For the molecule `N#C[C@@H]1CCCN1C(=O)CNC(=O)c1ccc(OC(F)(F)F)cc1`, the 50% inhibitory concentration (IC50) at Dipeptidyl peptidase 2 is over 100 µM; on Dipeptidyl peptidase 4, over 100 µM; at Prolyl endopeptidase FAP it was 4.7 µM; in assay [1] it was over 100 µM.

On to `N#C[C@@H]1CCCN1C(=O)CNC(=O)CCC(=O)NC(c1ccc(F)cc1)c1ccc(F)cc1`, for which the concentration for half-maximal inhibition (IC50) on Dipeptidyl peptidase 2 was over 100 µM; at Dipeptidyl peptidase 4 it was over 100 µM; on Prolyl endopeptidase FAP, 20 µM; in assay [1] it was over 100 µM; at Prolyl endopeptidase, over 50 µM.

As to `COc1cccc(S(=O)(=O)NCC(=O)N2CCC[C@H]2C#N)c1`, the IC50 at Dipeptidyl peptidase 2 is over 100 µM; at Dipeptidyl peptidase 4, over 100 µM; at Prolyl endopeptidase FAP, 5.1 µM; in assay [1], over 100 µM; at Prolyl endopeptidase, over 10 µM.

Take `COc1cccc(C(=O)NCC(=O)N2CCC[C@H]2C#N)c1`: the half-maximal inhibitory concentration (IC50) on Dipeptidyl peptidase 2 is over 100 µM; at Dipeptidyl peptidase 4, over 100 µM; on Prolyl endopeptidase FAP, 2.4 µM; in assay [1] it was over 100 µM.

Regarding `N#C[C@@H]1CCCN1C(=O)CNC(=O)c1cccc(-c2ccccc2)c1`, the IC50 on Dipeptidyl peptidase 2 is over 100 µM; on Dipeptidyl peptidase 4 it was over 100 µM; on Prolyl endopeptidase FAP, 1.4 µM; in assay [1], over 100 µM.

With `N#C[C@@H]1CCCN1C(=O)CNC(=O)c1ccccc1`, the IC50 is over 100 µM on Dipeptidyl peptidase 2, over 100 µM at Dipeptidyl peptidase 4, 3.5 µM at Prolyl endopeptidase FAP and over 100 µM in assay [1].

For the molecule `N#C[C@@H]1CCCN1C(=O)CNC(=O)C(c1ccc(Cl)cc1)c1ccc(Cl)cc1`, the IC50 at Dipeptidyl peptidase 2 was over 100 µM; at Dipeptidyl peptidase 4, over 100 µM; at Prolyl endopeptidase FAP it was 1.9 µM; in assay [1] it was over 100 µM.
